Tests used:
p38α = p38α (Homo sapiens, UniProt Q16539); assay: p38 in-vitro HTRF enzyme assay; assay type: biochemical; details: IC50 value ranges
Experimental: p38 In-Vitro HTRF Enzyme Assay
The compounds of the invention can be tested for their respective affinities for the p38 protein using a conventional p38 in-vitro enzyme activity assay. For example, a P38-alpha HTRF assay may be used to measure the protein's in-vitro phosphorylation activity, and the data analyzed using time resolved fluorimetry techniques (FRET). A p38 HTRF assay is as follows. The kinase reaction buffer for p38α, p38β, p38δ and p38γ HTRF assays consists of 50 mM Tris-pH 7.5, 5 mM MgCl2, 0.1 mg/mL BSA, 100 μM Na3VO4 and 0.5 mM DTT. The HTRF detection buffer contains 100 mM HEPES-pH 7.5, 100 mM NaCl, 0.1% BSA, 0.05% Tween-20, and 10 mM EDTA. Each compound was dissolved in 100% DMSO and serially diluted (3 fold, 10 point) in a polypropylene 96-well microtiter plate (drug plate). The final starting concentration of the compound in the p38α and p38β enzymatic assays was about 1 μM. The final starting concentration of each compound in the p38δ and p38γ enzymatic assays was about 10 μM. The p38α, p38β, p38δ and p38γ kinase reactions were carried out in a polypropylene 96-well black round bottom assay plate in total volume of 30 μL kinase reaction buffer. Appropriate concentration of purified and activated enzyme (recombinant human) was mixed with indicated concentration of ATP and 100 nM GST-ATF2-Avitag, in the presence or absence (HI control) of each compound. In the absence of enzyme, the background was measured as LO control. HI controls and LO controls contained only DMSO. The reaction was allowed to incubate for 1 hour at RT. […] After 60 minutes incubation at room temperature, the assay plate was read in a Discovery Plate Reader. The wells were excited with coherent 320 nm light and the ratio of delayed ([…] post excitation) emissions at […] (native europium fluorescence) and 665 nm (europium fluorescence transferred to allophycocyanin—an index of substrate phosphorylation) was determined (Park et al, 1999). The resulting data was analyzed by taking the proportion of substrate phosphorylated in the kinase reaction in the presence of each individual compound and comparing it with that phosphorylated in the presence of DMSO vehicle alone (HI control). The data was calculated using the formula: % control (POC)=(compound−average LO)/(average HI−average LO)*100. Data (consisting of POC and inhibitor concentration in μM) was fitted to a 4-parameter equation (y=A+((B−A)/(1+((x/C)^D))), where A is the minimum y (POC) value, B is the maximum y (POC), C is the x (compound concentration) at the point of inflection and D is the slope factor, using a Levenburg-Marquardt non-linear regression algorithm. The inhibition constant (Ki) of the inhibitor was estimated from the IC50 (compound concentration at the point of inflection C) using the Cheng-Prussof equation: Ki=IC50/(1+S/Km), where S is the ATP substrate concentration, and Km is the Michaelis constant for ATP as determined experimentally. All results were expressed as the mean±the standard error of the mean. Data acquisition and non-linear regression algorithms were performed using Activity Base v5.2 and XLfit software v4.1 respectively. Additional assay information may be obtained in Park Y W, Cummings R T, Wu L, et al. Homogeneous Proximity Tyrosine Kinase Assays Scintillation Proximity Assay versus Homogeneous Time-Resolved Fluorescence. Analytical Biochemistry. 1999; 269: 94-104.

THP1 cells = assay: Lipopolysaccharide-activated THP1 cell TNF production assay; assay type: cell-based, human; details: Homo sapiens, THP-1; LPS-induced TNF-α production in THP1 cells
Experimental: Lipopolysaccharide-Activated THP1 Cell TNF Production Assay
THP1 cells are resuspended in fresh THP1 media (RPMI 1640, 10% heat-inactivated FBS, 1×PGS, 1×NEAA, plus 30 μM βME) at a concentration of 1E6/mL. One hundred microliters of cells per well are plated in a polystyrene 96-well tissue culture. One microgram per mL of bacterial LPS is prepared in THP1 media and is transferred to the wells. Test compounds are dissolved in 100% DMSO and are serially diluted 3-fold in a polypropylene 96-well microtiter plate (drug plate). HI control and LO control wells contain only DMSO. One microliter of test compound from the drug plate followed by 10 μL of LPS are transferred to the cell plate. The treated cells are induced to synthesize and secrete TNF-α at 37° C. for 3 h. Forty microliters of conditioned media are transferred to a 96-well polypropylene plate containing 110 μL of ECL buffer (50 mM Tris-HCl pH 8.0, 100 mM NaCl, 0.05% Tween 20, 0.05% NaN3 and 1% FBS) supplemented with 0.44 nM MAB610 monoclonal Ab (R&D Systems), 0.34 nM ruthenylated AF210NA polyclonal Ab (R&D Systems) and 44 μg/mL sheep anti-mouse M280 Dynabeads (Dynal). After a 2 h incubation at room temperature with shaking, the reaction is read on the ECL M8 Instrument (IGEN Inc.). A low voltage is applied to the ruthenylated TNF-α immune complexes, which in the presence of TPA (the active component in Origlo), results in a cyclical redox reaction generating light at […]. The amount of secreted TNF-α in the presence of compound compared with that in the presence of DMSO vehicle alone (HI control) is calculated using the formula: % control (POC)=(cpd−average LO)/(average HI−average LO)*100. Data (consisting of POC and inhibitor concentration in μM) is fitted to a 4-parameter equation (y=A+((B−A)/(1+((x/C)^D))), where A is the minimum y (POC) value, B is the maximum y (POC), C is the x (cpd concentration) at the point of inflection and D is the slope factor) using a Levenburg-Marquardt non-linear regression algorithm.

monocytes = assay: Lipopolysaccharide-activated monocyte TNF production assay (LPS induced TNF release); assay type: cell-based, human; details: Homo sapiens, Monocyte; LPS induced TNF release from monocytes; read-out: LPS induced TNFa
Experimental: Lipopolysaccharide-Activated Monocyte TNF Production Assay
Test compounds were evaluated in vitro for the ability to inhibit the production of TNF by monocytes activated with bacterial lipopolysaccharide (LPS). Fresh residual source leukocytes (a byproduct of plateletpheresis) were obtained from a local blood bank, and peripheral blood mononuclear cells (PBMCs) were isolated by density gradient centrifugation on Ficol-Paque Plus (Pharmacia). PBMCs were suspended at 2×10^6/mL in DMEM supplemented to contain 2% FCS, 10 mM, 0.3 mg/mL […], 100 U/mL penicillin G and […] streptomycin sulfate (complete media). Cells were plated into Falcon flat bottom, 96 well culture plates (200 μL/well) and cultured overnight at 37° C. and 6% CO2. Non-adherent cells were removed by washing with 200 μl/well of fresh medium. Wells containing adherent cells (˜70% monocytes) were replenished with 100 μL of fresh medium.
Preparation of Test Compound Stock Solutions
Test compounds were dissolved in […]. Compound stock solutions were prepared to an initial concentration of […]. Stocks were diluted initially to […] in complete media. Nine two-fold serial dilutions of each compound were then prepared in complete medium.
Treatment of Cells with Test Compounds and Activation of TNF Production with Lipopolysaccharide
One hundred microliters of each test compound dilution were added to microtiter wells containing adherent monocytes and 100 μL complete medium. Monocytes were cultured with test compounds for 60 min at which time 25 μL of complete medium containing 30 ng/mL lipopolysaccharide from E. coli K532 were added to each well. Cells were cultured an additional 4 hrs. Culture supernatants were then removed and TNF presence in the supernatants was quantified using an ELISA.
Flat bottom, 96 well Corning High Binding ELISA plates were coated overnight (4° C.) with 150 μL/well of 3 μg/mL murine anti-human TNF-α MAb (R&D Systems #MAB210). Wells were then blocked for 1 h at room temperature with 200 μL/well of CaCl2-free ELISA buffer supplemented to contain 20 mg/mL BSA (standard ELISA buffer: […], 150 mM NaCl, 2 mM CaCl2, 0.15 mM thimerosal, pH 7.4). Plates were washed and replenished with 100 μL of test supernatants (diluted 1:3) or standards. Standards consisted of eleven 1.5-fold serial dilutions from a stock of 1 ng/mL recombinant human TNF (R&D Systems). Plates were incubated at room temperature for 1 h on orbital shaker (300 rpm), washed and replenished with 100 μL/well of 0.5 μg/mL goat anti-human TNF-α (R&D systems #AB-210-NA) biotinylated at a 4:1 ratio. Plates were incubated for 40 min, washed and replenished with 100 μL/well of alkaline phosphatase-conjugated streptavidin (Jackson ImmunoResearch #016-050-084) at 0.02 μg/mL. Plates were incubated 30 min, washed and replenished with 200 μL/well of 1 mg/mL of p-nitrophenyl phosphate.
Standard curve data were fit to a second order polynomial and unknown TNF-α concentrations determined from their OD by solving this equation for concentration. TNF concentrations were then plotted vs. test compound concentration using a second order polynomial. This equation was then used to calculate the concentration of test compounds causing a 50% reduction in TNF production.

p38α, sequence (Q16539 whole entry): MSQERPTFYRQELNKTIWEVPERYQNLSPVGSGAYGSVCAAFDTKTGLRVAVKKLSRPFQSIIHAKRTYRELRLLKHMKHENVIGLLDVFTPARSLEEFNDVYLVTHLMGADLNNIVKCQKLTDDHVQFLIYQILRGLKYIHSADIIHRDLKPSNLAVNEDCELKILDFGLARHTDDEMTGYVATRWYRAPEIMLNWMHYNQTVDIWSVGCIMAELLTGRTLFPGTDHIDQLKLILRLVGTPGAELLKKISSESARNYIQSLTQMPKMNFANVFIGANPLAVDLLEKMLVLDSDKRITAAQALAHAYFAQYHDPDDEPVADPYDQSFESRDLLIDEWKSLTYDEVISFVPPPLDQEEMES

Compound	IC50 (p38α)	IC50 (THP1 cells)	IC50 (monocytes)
Cc1ccc(C(=O)Nc2ccnn2C)cc1-c1ccn2c(-c3ccc(F)cc3C)nnc2c1 [Example 17, 3-(3-(4-fluoro-2-methylphenyl)[1,2,4]triazolo[4,3-a]pyridin-7-yl)-4-methyl-N-(1-methyl-1H-pyrazol-5-yl)benzamide]	< 25 nM	< 25 nM	< 25 nM
Cc1ccc(C(=O)NC2(C)CC2)cc1-c1ccn2c(-c3ccc(F)cc3C)nnc2c1 [Example 16, 3-(3-(4-fluoro-2-methylphenyl)[1,2,4]triazolo[4,3-a]pyridin-7-yl)-4-methyl-N-(1-methylcyclopropyl)benzamide]	25 to 100 nM	100 to 250 nM	100 to 250 nM
Cc1ccc(C(=O)Nc2ccnn2C)cc1-c1ccn2c(-c3ccccc3Cl)nnc2c1 [Example 3, 3-(3-(2-chlorophenyl)[1,2,4]triazolo[4,3-a]pyridin-7-yl)-4-methyl-N-(1-methyl-1H-pyrazol-5-yl)benzamide]	< 25 nM	< 25 nM	< 25 nM
Cc1ccc(C(=O)NC2CC2)cc1-c1ccn2c(-c3cccc(S(C)(=O)=O)c3)nnc2c1 [Example 18, N-cyclopropyl-4-methyl-3-(3-(3-(methylsulfonyl)phenyl)[1,2,4]triazolo[4,3-a]pyridin-7-yl)benzamide]	25 to 100 nM	250 to 1000 nM	100 to 250 nM
Cc1ccc(C(=O)Nc2ccnn2C)cc1-c1ccn2c(C3(C(F)(F)F)CC3)nnc2c1 [Example 20, 4-methyl-N-(1-methyl-1H-pyrazol-5-yl)-3-(3-(1-(trifluoromethyl)cyclopropyl)[1,2,4]triazolo[4,3-a]pyridin-7-yl)benzamide]	< 25 nM	< 25 nM	–

Results, then the compound that gave them:

IC50 (p38α)	IC50 (THP1 cells)	IC50 (monocytes)	Compound
< 25 nM	< 25 nM	25 to 100 nM	Cc1ccc(C(=O)Nc2ccnn2C)cc1-c1ccn2c(-c3ccc(F)cc3C)ncc2c1 [Example 23, 3-(3-(4-fluoro-2-methylphenyl)imidazo[1,5-a]pyridin-7-yl)-4-methyl-N-(1-methyl-1H-pyrazol-5-yl)benzamide]
< 25 nM	100 to 250 nM	100 to 250 nM	Cc1ccc(C(=O)Nc2ccnn2C)cc1-c1ccn2c(C(C)C)nnc2c1 [Example 28, 4-methyl-3-(3-(1-methylethyl)[1,2,4]triazolo[4,3-a]pyridin-7-yl)-N-(1-methyl-1H-pyrazol-5-yl)benzamide]
< 25 nM	< 25 nM	25 to 100 nM	Cc1c(F)cc(C(=O)NC2CC2)cc1-c1ccn2c(-c3ccncc3Cl)nnc2c1 [Example 79, 3-(3-(3-chloro-4-pyridinyl)[1,2,4]triazolo[4,3-a]pyridin-7-yl)-N-cyclopropyl-5-fluoro-4-methylbenzamide]
< 25 nM	< 25 nM	< 25 nM	Cc1c(F)cc(C(=O)NC2CC2)cc1-c1ccn2c(C(C)(C)C)nnc2c1 [Example 50, N-cyclopropyl-3-(3-(1,1-dimethylethyl)[1,2,4]triazolo[4,3-a]pyridin-7-yl)-5-fluoro-4-methylbenzamide]
< 25 nM	100 to 250 nM	250 to 1000 nM	Cc1ccc(C(=O)NC2CC2)cc1-c1ccn2c(-c3ccccc3)nnc2c1 [Example 37, N-cyclopropyl-4-methyl-3-(3-phenyl[1,2,4]triazolo[4,3-a]pyridin-7-yl)benzamide]
< 25 nM	25 to 100 nM	–	Cc1ccc(C(=O)NC2CC2)cc1-c1ccn2c(C(C)C)nnc2c1 [Example 27, N-cyclopropyl-4-methyl-3-(3-(1-methylethyl)[1,2,4]triazolo[4,3-a]pyridin-7-yl)benzamide]
< 25 nM	< 25 nM	–	Cc1ccc(C(=O)NC2CC2)cc1-c1ccn2c(C3(C(F)(F)F)CC3)nnc2c1 [Example 21, N-cyclopropyl-4-methyl-3-(3-(1-(trifluoromethyl)cyclopropyl)[1,2,4]triazolo[4,3-a]pyridin-7-yl)benzamide]
